Reference: US6509027B2, “Injectable pharmaceutical composition comprising coated particles of camptothecin” (priority 2001, dated 2003)

How the values were obtained:
[1] = target: human serum albumin (HSA) (Homo sapiens, UniProt P02768); conditions: PBS at pH 7.4; cited from earlier work
[2] = Evaluation of toxicity in the A375 melanoma study; format: in vivo, athymic nude mice; conditions: Group 7: 150 mg/kg I.P., qd×5
Protocol: Volumes of 0.20 ml per 20-g mouse, body-weight adjusted, were administered once daily. Tumor-bearing athymic nude mice were matched on Day 1 into 13 groups of ten animals and drug administration was initiated. The I.V. formulations of 9-nitro-camptothecin were given once daily on a 5/2/5 schedule as shown in the protocol summary shown in FIG. 4. Oral 9-nitro-camptothecin doses were given on a q3d×4 schedule (Days 1, 4, 8, and 11). Three reference drugs were administered I.P.: CAMPTOSAR® was given in three doses at weekly intervals (qwk×3); HYCAMTIN® was given in four doses at four-day intervals (q4d×4); and DTIC® was given in five consecutive daily doses (qd×5). The tumor growth control group for these reference treatments received no treatment (Group 1). The 9-nitro-camptothecin vehicle: 33.3% IDD-P, 100% IDD-D, and 3% DMA, was administered to vehicle control Groups 2-4, respectively.
The maximum tolerated dose (MTD), as defined by the NCI, is the highest dose at which no more than 10% of the animals die and the group mean body-weight loss is no more than 20%. Body weights were measured daily for four or five days and then twice weekly thereafter until the experiments were terminated on Day 62 of the study. […] Because mice are not tagged for MTD studies, only the mean group body weights recorded in the appended raw data are significant in those studies.

[3] = system: A375 human melanoma xenografts; assay: A375 human melanoma xenograft study 1, tumor growth delay method; format: in vivo, athymic nude mice
Source text: The following study evaluates two intravenous formulations according to the present invention against human tumor xenografts in athymic nude mice. The study used the A375 human melanoma xenograft model to compare the in vivo antitumor efficacy of I.V. 9-nitro-camptothecin, in vehicles containing IDD-P which provides a particulate suspension of 9-nitro-camptothecin, and IDD-D which provides a droplet suspension of 9-nitro-camptothecin, to the efficacy of oral 9-nitro-camptothecin and intraperitoneal CAMPTOSAR®, HYCAMTIN®, and DTIC®. Examples 1 and 2 describe the compositions of IDD-P (FIG. 1; formulation 1-F) and IDD-D respectively.
In order to assess antitumor efficacy, groups of athymic nude mice (n=10) bearing ˜72-mg A375 melanomas were treated intravenously on the 5/2/5 schedule with 9-nitro-camptothecin in IDD-P at 3.0 mg/kg or 1.5 mg/kg and 9-nitro-camptothecin in IDD-D at 2.0 mg/kg or 1.0 mg/kg.
Female nude mice were 16 weeks of age (NCR-nuJBr; Taconic Farms) for the A375 study. The mice were fed ad libitum water (reverse osmosis, 1 ppm Cl) and autoclaved Prolab NIH-31 M/5% Rodent Diet consisting of 18% protein, 5% fat, 6% fiber, and 8% ash. Mice were housed in static microisolators on a 12-hour light cycle at 21-22° C. (70-72° F.) and 40%-60% humidity. The animal care and use program is AAALAC International accredited and specifically follows and complies with the recommendation of the National Research Council's Guide for the Care and Use of Laboratory Animals.
An A375 melanoma fragment (1 mm 3) was implanted subcutaneously in the flank of each nude mouse. When the tumors reached the 60-112 mg size range, the mice were sorted into treatment groups (on Day 1) such that the group mean tumor sizes ranged from 71.3 mg-72.5 mg. Estimated tumor weight was calculated using the formula: [formula]
IDD-P with a mean particle size of […] and IDD-D with a mean particle size of […] were prepared for the study by RTP Pharma Inc. For this, the 9-nitro-camptothecin suspensions were diluted with water and vehicle to provide doses of 3 mg/kg and 1.5 mg/kg in 33% IDD-P, and doses of 2 mg/kg and 1 mg/kg in 100% and 50% IDD-D, respectively. After dilution, 9-nitro-camptothecin suspensions were mixed thoroughly by gentle agitation and stored at 2-8° C. For its oral formulation, 9-nitro-camptothecin was dissolved in DMA (N,N-dimethylacetamide, SIGMA) and diluted with D5W to yield a final DMA concentration of 3%. CAMPTOSAR®, DTIC®, and HYCAMTIN® were obtained as the marketed drugs and solutions were prepared fresh on the day of dosing. […]
The tumor growth delay (TGD) method was used to assess efficacy. Tumor dimensions were measured twice weekly until the experiment was terminated on Day 62. […]

[4] = i.v., clinical trials; cited from earlier work

Sequence of human serum albumin (HSA) (P02768 25-609): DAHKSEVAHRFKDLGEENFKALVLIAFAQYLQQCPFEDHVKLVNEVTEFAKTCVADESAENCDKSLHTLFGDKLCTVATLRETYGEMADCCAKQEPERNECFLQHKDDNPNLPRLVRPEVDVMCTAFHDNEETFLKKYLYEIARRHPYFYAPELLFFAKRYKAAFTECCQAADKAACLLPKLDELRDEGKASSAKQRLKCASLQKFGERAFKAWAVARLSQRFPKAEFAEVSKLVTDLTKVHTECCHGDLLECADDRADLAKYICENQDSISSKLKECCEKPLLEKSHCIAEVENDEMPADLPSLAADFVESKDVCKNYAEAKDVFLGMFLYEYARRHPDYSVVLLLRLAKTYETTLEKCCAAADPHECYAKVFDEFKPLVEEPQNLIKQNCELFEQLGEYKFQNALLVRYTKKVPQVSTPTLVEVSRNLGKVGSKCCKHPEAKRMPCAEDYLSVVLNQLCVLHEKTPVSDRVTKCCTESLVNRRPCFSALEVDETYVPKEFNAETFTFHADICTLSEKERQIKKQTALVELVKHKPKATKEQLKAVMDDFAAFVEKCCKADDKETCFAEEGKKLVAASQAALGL

SMILES: CC[C@@]1(O)C(=O)OCc2c1cc1n(c2=O)Cc2cc3ccccc3nc2-1 [camptothecin, 20(S)-camptothecin]
- affinity of HSA for the carboxylate form relative to the α-hydroxy lactone form [1]: 150 fold

SMILES: CN(C)/N=N/c1[nH]cnc1C(N)=O [DTIC®, dacarbazine]
- toxic deaths (of 10 mice) [2]: one and One

SMILES: CC[C@@]1(O)C(=O)OCc2c1cc1n(c2=O)Cc2cc3c(CN(C)C)c(O)ccc3nc2-1 [HYCAMTIN®, topotecan]
- 62-day survivors (of 10 mice) ([3]; Group 6: 10 mg/kg I.P., q4d×4): one
- complete regression (CR) responses on Day 62 ([3]; Group 6: 10 mg/kg I.P., q4d×4, 10 mg/kg): single and one

SMILES: CC[C@@](O)(C(=O)[O-])c1cc2n(c(=O)c1CO)Cc1cc3ccccc3nc1-2.[Na+] [Sodium camptothecin]
- clinical activity [4]: antitumor activity
- clinical side effects [4]: unpredictable side effects such as myelosuppression and hemorrhagic cystitis

SMILES: CCc1c2c(nc3ccc(OC(=O)N4CCC(N5CCCCC5)CC4)cc13)-c1cc3c(c(=O)n1C2)COC(=O)[C@]3(O)CC [CAMPTOSAR®, irinotecan]
- 62-day survivors (of 10 mice) ([3]; Group 5: 100 mg/kg I.P., qwk×3): one
- complete regression (CR) responses on Day 62 ([3]; Group 5: 100 mg/kg I.P., qwk×3, 100 mg/kg): single and one
